Reference: patent publication US9801832B2, “Pharmaceutical composition having synergistic action of direct catalase inhibitors and modulators of no metabolism or of extracellular superoxide anion production which lead to catalase destruction” (Universitaetsklinikum Freiburg, priority 2012, dated 2017)
Blank lines part the entries; values can stand above or below the molecule they belong to.

What was measured:
[1] = tested on: MKN-45 gastric carcinoma cells; assay: Induction of apoptosis in MKN-45 gastric carcinoma cells (percentages of apoptotic cells); assay type: cell-based, human; conditions: for synergistic interaction with salicylic acid in the induction of apoptosis: 6 hours (FIGS. 22-25); for induction of apoptosis, substance alone at the concentration of the combination: 0.15 ng/ml cyanidine alone, 0.08 μg/ml salicylic acid alone; for dependence of the induction of apoptosis on singlet oxygen: 2 mM histidine (singlet oxygen scavenger); for induction of apoptosis: 12 500 MKN-45 cells in 100 μl, 4-6.5 hours at 37° C.
Experimental: 12 500 MKN-45 cells in 100 μl (duplicate batches) were treated with the given concentrations of salicylic acid or remained free from salicylic acid. After 10 minutes the given concentrations of cyanidine were added.
12 500 MKN-45 cells in 100 μl (duplicate batches) were treated with 0.1 μg/ml salicylic acid or remained free from salicylic acid (control). […] After 6.5 hours the percentages of apoptotic cells were determined in duplicate batches.
12 500 MKN-45 cells in 100 μl (duplicate batches) either received no additive (control), 2 mM of the singlet oxygen scavenger histidine or 25 μM Caspase-8 inhibitor. […] After another 15 minutes cyanidine was added in the given concentrations. After 6.5 hours of incubation at 37° C. the percentages of apoptotic cells were determined.
12 500 MKN-45 cells in 100 μl (duplicate batches) either received no additive (control), 2 mM of the singlet oxygen scavenger histidine or 25 μM Caspase-8 inhibitor. […] After 6.5 hours incubation at 37° C. the percentage of apoptotic cells was determined. […]
12 500 MKN-45 cells in 100 μl medium were incubated with increasing concentrations of the given active ingredients, in the presence or absence of 0.1 μg/ml salicylic acid for 6 hours and then, the percentages of the apoptotic cells were determined (repeated determination).

tumor cell catalase = target: T1, tumor cell catalase (Homo sapiens, UniProt P04040); assay: Catalase inhibition/inactivation in MKN-45 cells by challenge with exogenous peroxynitrite, NO donor or glucose oxidase; assay type: cell-based; parameters: endogenous in cells; host or cells: MKN-45 gastric carcinoma cells; conditions: 200 μM peroxynitrite; for inhibition of tumor cell catalase (sensitization to exogenous peroxynitrite) / catalase inhibition / sensitization to peroxynitrite with inhibited superoxide anion synthesis: MKN-45; for catalase inhibition / sensitization to peroxynitrite with inhibited superoxide anion synthesis: 100 μM AEBSF; for requirement of singlet oxygen, superoxide anions and NO for catalase inhibition/inactivation: 2 mM histidine, 100 μM AEBSF or 2.4 mM L-NAME, MKN-45 (FIGS. 14, 15)
T1 sequence (P04040 2-527 limits assumed): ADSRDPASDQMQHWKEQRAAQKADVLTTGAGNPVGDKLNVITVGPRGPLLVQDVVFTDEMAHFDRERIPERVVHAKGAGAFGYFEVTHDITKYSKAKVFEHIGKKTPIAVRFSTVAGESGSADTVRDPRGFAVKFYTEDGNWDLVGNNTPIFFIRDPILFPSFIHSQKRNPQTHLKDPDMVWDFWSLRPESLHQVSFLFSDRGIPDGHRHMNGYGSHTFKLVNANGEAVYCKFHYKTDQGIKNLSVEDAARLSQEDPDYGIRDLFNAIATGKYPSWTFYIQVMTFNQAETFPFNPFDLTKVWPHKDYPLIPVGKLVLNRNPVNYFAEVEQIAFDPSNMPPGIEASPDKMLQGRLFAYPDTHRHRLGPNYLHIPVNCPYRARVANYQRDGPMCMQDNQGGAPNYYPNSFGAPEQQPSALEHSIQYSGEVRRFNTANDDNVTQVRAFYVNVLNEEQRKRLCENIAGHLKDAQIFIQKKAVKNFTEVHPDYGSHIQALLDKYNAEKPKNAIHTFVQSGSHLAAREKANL
Experimental: Direct catalase inhibition with relevance to the induction of apoptosis in tumor cells can be determined by pre-incubating tumor cells at first in the presence of the singlet oxygen scavenger histidine (2 mM) with the substance to be tested in increasing concentration (between 10 and 30 minutes at 37° C.) and subsequently adding peroxynitrite in the concentration range between 10 and 200 μM. The tumor cells are protected from the apoptosis-triggering effect of peroxynitrite by their membranous catalase. An inhibition of the catalase partially or completely cancels this protection and in the presence of peroxynitrite leads to the induction of apoptosis. The presence of 2 mM histidine ensures that the measured induction of apoptosis is not a singlet oxygen-mediated inactivation of the catalase by destruction of its active center. Alternatively, instead of addition of histidine inhibition of the NADPH oxidase by 100 μM AEBSF may take place. With prevented superoxide anion production also no singlet oxygen formation in the test system is possible.
4000 MKN-45 cells per 100 μl in […] were treated with increasing concentrations of monoclonal antibodies against catalase “Anti-KAT” or Anti-EGFR. After 15 minutes either 200 μM peroxynitrite (“PON”), 0.5 mM DEA-NONOate (rapidly decomposing NO donor), or 2 mU/ml glucose oxidase (GOX) that continuously generates hydrogen peroxide were added. After another two hours at 37° C. the percentages of apoptotic cells were determined in duplicate batches.
The principle of identification is based on the fact that tumor cells (here MKN-45 gastric carcinoma cells) are protected from the apoptosis-triggering effect of exogenously added peroxynitrite by their membranous catalase. Addition of catalase inhibitors sensitizes the cells to the effect of exogenous peroxynitrite.
The experiment was performed in analogy to that described in FIG. 9 except that instead of Anti-KAT a monoclonal antibody against SOD was used. The cells were tested in two different densities, namely 4000 and 12 500 cells per 100 μl. The challenge to test the activity of catalase was carried out with 200 μM peroxynitrite, or 0.5 mM DEA NONOate or 2 mU/ml GOX.
Subsequently, 200 μM or no peroxynitrite was added. After 1.5 hours the percentages of apoptotic cells were determined in duplicate batches.
Subsequently, 200 μM or no peroxynitrite was added. After 1 hour the percentages of apoptotic cells were determined in duplicate batches.
12 500 MKN-45 cells in 100 μl medium received 100 μM AEBSF or no additive. After 15 minutes the given concentrations of cyanidine were added and the batches were incubated for 15 minutes at 37° C. Subsequently, 200 μM peroxynitrite (PON) were added or the batches were not treated with peroxynitrite (control). After 1 hour the percentages of apoptotic cells were determined in duplicate batches.
12 500 MKN-45 cells received no addition (control), or 2 mM histidine, or 100 μM AEBSF or 2.4 mM L-NAME immediately before the addition of the given concentrations of salicylic acid (“0 min”) or 20 minutes after addition of salicyl. 20 minutes after the addition of salicylic acid 200 μM peroxynitrite (PON) were added to all batches except the control batches. After another 2 hours the percentages of apoptotic cells were determined in duplicates.

Gumbus lymphoma cells = assay: Induction of apoptosis in Gumbus lymphoma cells (percentages of apoptotic cells); assay type: cell-based, human
Experimental: 12 500 MKN-45 gastric carcinoma cells (A) or 25 000 Gumbus lymphoma cells (B) in 100 μl complete medium each either remained untreated (control) or received 2 mM histidine (singlet oxygen scavenger), 50 mM taurine (HOCl scavenger), or 2.4 mM L-NAME (NOS inhibitor). In Experiment A, additionally 10 mM mannitol (hydroxyl radical scavenger), 150 μM ABH (peroxidase inhibitor), 100 U/ml MnSOD (superoxide anion scavenger) and 25 μM FeTPPS (peroxynitrite decomposer) were used. Subsequently, the given concentrations of salicylic acid were added. After 5 hours (A) and 4 hours, respectively, of incubation at 37° C. the percentages of apoptotic cells were determined in duplicate batches according to the classical apoptosis features nuclear condensation, nuclear fragmentation, and membrane blebbing. Here, at least 200 cells were evaluated pre batch. […] Inhibitors: singlet oxygen scavenger histidine 2 mM; HOCl scavenger taurine 50 mM, NOS inhibitor L-NAME 2.4 mM, peroxidase inhibitor ABH 150 μM.

[2] = 0.1 μg/ml salicylic acid, MKN-45

Structure (SMILES): N=C(NO)NCC[C@H](N)C(=O)O [NOR-NOHA]
synergistic interaction with salicylic acid in the induction of apoptosis [1, 2]: synergistically reacts

Structure (SMILES): C=CCN=C=S [allylisothiocyanate]
synergistic interaction with salicylic acid in the induction of apoptosis [1, 2]: synergistically reacts

Structure (SMILES): N=C(N)NCCC[C@H](N)C(=O)O [arginine]
synergistic interaction with salicylic acid in the induction of apoptosis [1, 2]: synergistically reacts

Structure (SMILES): C[C@@H]1CC[C@H]2[C@@H](C)C(=O)O[C@@H]3O[C@@]4(C)CC[C@@H]1[C@]32OO4 [artemisinin]
synergistic interaction with salicylic acid in the induction of apoptosis [1, 2]: synergistically reacts

Structure (SMILES): O=C1O[C@H]([C@@H](O)CO)C(O)=C1O [ascorbic acid]
inhibition of tumor cell catalase (sensitization to exogenous peroxynitrite) (tumor cell catalase): directly inhibit catalase
synergism with cyanidine in the induction of apoptosis [1]: Synergism is achieved
synergism with taxol in the induction of apoptosis [1]: Synergism is achieved

EC50 ([1]; Homo sapiens, applied alone, MKN-45, 6 hours (FIG. 16), read-out: concentration at half-maximum value of induction of apoptosis): ~0.02 mg/L
Structure (SMILES): Oc1cc(O)c2cc(O)c(-c3ccc(O)c(O)c3)[o+]c2c1.[Cl-] [cyanidine, cyanidine chloride]
catalase inhibition / sensitization to peroxynitrite with inhibited superoxide anion synthesis (tumor cell catalase): do not exhibit sensitivity for peroxynitrite
inhibition of tumor cell catalase (sensitization to exogenous peroxynitrite) (tumor cell catalase): leads to a sensitization to peroxynitrite
requirement of singlet oxygen, superoxide anions and NO for catalase inhibition/inactivation (tumor cell catalase): requires singlet oxygen, superoxide anions and NO
induction of apoptosis, substance alone at the concentration of the combination ([1]; MKN-45 (FIG. 16)): remained ineffective
induction of apoptosis by the combination with salicylic acid ([1]; 0.15 ng/ml cyanidine with 0.08 μg/ml salicylic acid, MKN-45 (FIG. 16)): maximum induction of apoptosis
dependence of the synergistic effect with salicylic acid on Caspase-8 ([1]; 0.1 μg/ml salicylic acid, 25 μM Caspase-8 inhibitor, MKN-45, 6.5 hours (FIGS. 18, 19)): independent of Caspase-8
dependence of the synergistic effect with salicylic acid on singlet oxygen ([1]; 0.1 μg/ml salicylic acid, 2 mM histidine, MKN-45, 6.5 hours (FIGS. 18, 19)): also based on the effect of singlet oxygen
synergistic effect with salicylic acid in the induction of apoptosis ([1]; 0.1 μg/ml salicylic acid, MKN-45, 6.5 hours (FIG. 17)): remarkable synergistic effect
concentration at optimum of induction of apoptosis ([1]; applied alone, MKN-45, 6 hours (FIG. 16)): 0.3 µg/mL
synergistic effect with salicylic acid in the induction of apoptosis ([1]; given concentrations of salicylic acid, MKN-45, 6 hours (FIG. 16)): considerable synergistic effect
dependence of the induction of apoptosis on Caspase-8 ([1]; substance alone, 25 μM Caspase-8 inhibitor, MKN-45): depends on the activity of dead receptors (such as FAS) and the thus activated Caspase-8
dependence of the induction of apoptosis on singlet oxygen ([1]; substance alone, MKN-45): depends on singlet oxygen
induction of apoptosis ([1]; substance alone): concentration-dependent induction of apoptosis

Structure (SMILES): C=CCSSCC=C [diallyldisulfide]
synergistic interaction with salicylic acid in the induction of apoptosis [1, 2]: synergistically reacts

Structure (SMILES): C=CCSCC=C [diallylsulfide]
synergistic interaction with salicylic acid in the induction of apoptosis [1, 2]: not

Structure (SMILES): COc1cc(O)c(CC=C(C)C)c2c1C(=O)CC(c1ccc(O)cc1)O2 (stereo not drawn) [isoxanthohumol]
synergistic interaction with salicylic acid in the induction of apoptosis [1, 2]: synergistically reacts

Structure (SMILES): CCCCCCCCCCCCCCCC(=O)O [palmitic acid]
synergistic interaction with salicylic acid in the induction of apoptosis [1, 2]: synergistically reacts

Structure (SMILES): O=c1c(O)c(-c2ccc(O)c(O)c2)oc2cc(O)cc(O)c12 [quercetin]
synergistic interaction with salicylic acid in the induction of apoptosis [1, 2]: synergistically reacts

catalase inactivation, alone at the chosen concentration (tumor cell catalase; 6.25 ng/ml alone, MKN-45 (FIG. 21)): almost no catalase inactivation
Structure (SMILES): O=C(O)c1ccccc1O [salicylic acid]
catalase inhibition / sensitization to peroxynitrite with inhibited superoxide anion synthesis (tumor cell catalase): independent of the superoxide anion synthesis
inhibition of tumor cell catalase (sensitization to exogenous peroxynitrite) (tumor cell catalase): inhibits the catalase of the tumor cells
requirement of singlet oxygen, superoxide anions and NO for catalase inhibition/inactivation (tumor cell catalase): independent of superoxide anions, NO and singlet oxygen
dependence of the induction of apoptosis on singlet oxygen (Gumbus lymphoma cells; 2 mM histidine (singlet oxygen scavenger), Gumbus cells): does not depend on singlet oxygen
ROS signal path of the induced apoptosis (inhibitor profile) (Gumbus lymphoma cells; Gumbus cells, L-NAME, taurine, ABH): In the low concentration range of the salicylic acid preferably the NO/peroxynitrite signal path runs, with higher concentrations the HOCl path predominates
induction of apoptosis (Gumbus lymphoma cells; substance alone, 25 000 Gumbus lymphoma cells in 100 μl, 4 hours at 37° C.): induces ROS-dependent induction of apoptosis
synergism with cyanidine in the induction of apoptosis [1]: Synergism is achieved
synergism with taxol in the induction of apoptosis [1]: Synergism is achieved
induction of apoptosis, substance alone at the concentration of the combination ([1]; MKN-45 (FIG. 16)): remained ineffective
induction of apoptosis, alone at 0.1 μg/ml ([1]; 0.1 μg/ml, MKN-45 (FIG. 18)): ineffective in itself
ROS signal path of the induced apoptosis (inhibitor profile) ([1]; MKN-45, L-NAME, FeTPPS, taurine, ABH): In the low concentration range of the salicylic acid preferably the NO/peroxynitrite signal path runs, with higher concentrations the HOCl path predominates
concentration up to which almost no effect on apoptosis is shown ([1]; administered alone, MKN-45, 6 hours (FIG. 16)): up to 0.32 μg/ml
dependence of the induction of apoptosis on singlet oxygen ([1]; substance alone, MKN-45): does not depend on singlet oxygen
induction of apoptosis ([1]; substance alone): induces ROS-dependent induction of apoptosis

Structure (SMILES): COc1cc(O)c(CC=C(C)C)c(O)c1C(=O)/C=C/c1ccc(O)cc1 [xanthohumol]
synergistic interaction with salicylic acid in the induction of apoptosis [1, 2]: synergistically reacts
